By IC50 is commonly meant the point on the concentration scale where inhibition reaches its midpoint. Low values mean greater potency in that assay, high ones weaker potency in that assay.

Marks after values point to notes of the source that are not given here. Bounds are passed on as bounds.

The values below come from US7173021B2, “Synthesis of temozolomide esters as potent anticancer pro-drugs for topical and transdermal applications in treatments of cancers” (Tianjin North Pharm Sci-Tech Co., Ltd., priority 2004, dated 2007).

The test system of one data set is TJ905 (human glioma). As to the kind of experiment: In vitro tumour cell growth inhibition (MTT), TJ905. Type of data set: cell-based. The note with it: Homo sapiens, Table 2 experiment, 96 h. Here is the method: Temozolomide (white powder), temozolomide acid (white powder) and temozolomide-8-carboxylate hexyl (white scale crystal) were made in house. For the estimation of in vitro tumour cell growth inhibition, MV3 (human melanoma), M14 (human melanoma), B16 and B16-BL6 (mouse melanoma), SHG-44, TJ899 and TJ905 (human glioma), MCF-7 (human breast), HCT-8 (human colon), A549 (human non small lung), Bel7402 (human hepatocellulor), and BGC-823 (human stomach) were used. All tumour cells were cultured in RPMI-1640 medium supplemented with 10% fetal bovine serum (FBS) at 37° C. in a humidified 5% CO2 incubator.
After being harvested from culture flasks, a cell suspension of 1×10^4/ml was made by using 1640 RPMI medium supplemented with 10% fetal bovine serum. 100 μl (contains 1000 tumour cells) of the cell suspension was seeded per well of 96-well flat-bottom Costar culture plates at 37° C. in a humidified 5% CO2 incubator for 24 hrs before introducing drugs. Each tested compounds was made for five different concentrations and 100 μl of the each concentration was introduced into parallel three wells; control wells were added with 100 μl of plain medium alone; fluorouracil (a chemotherapeutic antitumour drug) was used as the positive control. Cells were then incubated for 96 h. Proliferative response and cell death were determined using MTT (3-(4,5-dimethylthiazolyl)-2,5-diphenyl-tetrazolium bromide) assay.
MTT assay: Following incubation of cells with the tested compounds for 96 h, 100 μl of 0.4 mg/ml MTT in RPMI 1640 was added to each well and the plate was incubated at 37° C. for 4 h. The plate was then centrifuged and followed by removal of medium. 150 μl of DMSO was then added to dissolve formazan crystal. DMSO-added plates were placed on a plate shaker for 5 min and absorbance was measured spectrophotometrically at 540 nm (with reference wavelength at 450 nm) using a Benchmark microtiter plate reader (Bio-Rad 550, Bio-Rad Laboratories, CA, U.S.A.).
The IC50 was calculated from the curve of the tested compound concentrations against the inhibition rate of the tumour cells. Table 1 summarized the experiment results by using six human cancer cell lines, HCT-8 (colon carcinoma), A549 (non small lung carcinoma), MCF-7 (breast), Bel7402 (hepatocellulor carcinoma), BGC-823 (stomach adenocarcinoma), and MV3 (melanoma). Table 2 summarized the results from the experiment results by using two human melanoma cell lines, MV3 and M14, two mouse melanoma cell lines, B16 and B16-BL6, and three human glioma cell lines, TJ899, SHG-44 and TJ905.

The subject of a further data set is MV3 melanoma (human). As to the kind of experiment: In vivo antitumour activity, BALB/c nude mice inoculated with MV3 melanoma, topical application. The conditions noted are these: 20 mg/mouse/day topical. Here is the method: The temozolomide hexyl ester is chosen to conduct an in viva antitumour test. BALB/c nude mice were inoculated with MV3 melanoma (human). Once the tumour volume became 100–300 mm^3, the mice were divided into a controlled and a tested group of eight with a rational distribution of the mice according to the sizes of the tumours. The tested group was treated with 5% (W/V) free made dimethyl sulfoxide (DMSO) solution of the temozolomide hexyl ester twice a day (once on Saturday and Sunday) via repeated topical application (total dosage is 20 mg/mouse/day), while the controlled group was left to grow naturally. In a period of two-week experiment, the tumour growth in the mice was carefully recorded through body weighing and the measurement of the tumour sizes. After two weeks, the mice were scarified; tumour bulks were separated and weighed. The results of inhibition of tumour growth by the temozolomide hexyl ester are summarized in Table 5 and depicted in FIG. 10.
Preparation of 5% (W/V) DMSO solution of the temozolomide hexyl ester is carried out by weighing a actual amount of the temozolomide hexyl ester, then using DMSO to make the concentration to 50 mg/ml. After temozolomide hexyl ester is completely dissolved and a clear solution is obtained, the fresh made 5% (W/V) DMSO solution of the temozolomide hexyl ester is used in the experiments.
BALB/c nude mice were inoculated with MV3 melanoma (human). Once the tumour bulk became 100–300 mm^3, the mice were divided into a controlled and a tested group with a rational distribution of the mice according to the sizes of the tumours. Each group is consisted of 8 mice.
The tested group was treated with 5% (W/V) DMSO solution of the temozolomide hexyl ester twice a day (once on Saturday and Sunday) via repeated topical application on position of tumour and around of 2×2 cm^2 region (total dosage is 20 mg/mouse/day); while the controlled group was left free of treatment to allow the tumour to growth naturally.
The tumour volumes (TV) in the mice were measured for twice of a week, calculated using TV(mm^3)=(length×width^2)÷2, and carefully recorded and finally depicted in FIG. 10. After two weeks, the mice were scarified; tumour bulks were isolated, weighed and calculated the growth inhibition rate of MV3 melanoma (human) in BALB/c nude mice by the temozolomide hexyl ester. The antitumour activity of the temozolomide hexyl ester against MV3 melanoma (human) in BALB/c nude mice is evaluated by the relative tumour proliferation ratio (T/C %). T/C (%) is calculated by the following equation:
Where, RTV=Vt/Vo (Vo is the tumour volume (TV) at the time when the mice were divided into the tested group and the controlled group; Vt is the tumour volume (TV) were measured at each time interval FIG. 10). The criteria for effectiveness are (1) when T/C (%)>60, the compound is no effect; (2) when T/C (%)≦60 and statistically significant P<0.05, the compound is effect. In the case of the temozolomide hexyl ester, the T/C (%) in BALB/c nude mice bearing MV3 melanoma (human) is 33.7% (Table 3) and P<0.05.

As to `CCCCCCOC(=O)c1ncn2c(=O)n(C)nnc12` [temozolomide hexyl ester, Hexyl 3,4-dihydro-3-methyl-4-oxoimidazo[5,1-d]-1,2,3,5-tetrazine-8-carboxylate], the concentration for half-maximal inhibition (IC50) with TJ905 (human glioma) was over 100 µg/mL. Moreover, in the data set with MV3 melanoma (human) (after two weeks, mean ± SD), the “Body weight, end” value is 22.9 ± 2.23 g and the Tumour weight stood at 0.41 ± 0.318 g. For the same compound, the “Tumour volume, end” value in the data set on MV3 melanoma (human) (after two weeks, mean ± SD, P < 0.05 vs control) is reported as 622 ± 545.1* mm^3. In addition, in the data set with MV3 melanoma (human) (start, mean ± SD), the “Body weight, start” value was determined as 24.0 ± 1.53 g and the “Tumour volume, start” value was determined as 116 ± 27 mm^3. In the data set with MV3 melanoma (human) (RTV=Vt/Vo, two weeks), this compound showed an RTV of 3.01 ± 1.95. The “Inhibition (%) of tumour growth” value with MV3 melanoma (human) (from tumour weight, two weeks) worked out at 80.5%. In addition, the “T/C (%)” value in the data set on MV3 melanoma (human) (relative tumour proliferation ratio, two weeks) worked out at 33.7%.
